According to patent publication US11324799B2, “Gap junction intercellular communication modulators and their use for the treatment of diabetic eye disease” (ZEALAND PHARMA A/S, priority 2017, dated 2022):

Legend:
diabetic rats = assay: In vivo permeability (IVP): extravasation of FITC-dextran in retinal capillaries; parameters: species or system rat; settings: for vascular leakage (FIG. 3): diabetic rat retinas; for vascular leakage: 15 weeks
Procedure: To determine if improvement in Cx43-mediated gap junction intercellular communication (GJIC) prevents retinal vascular cell death and excess retinal vascular permeability, danegaptide was administered intravitreally or via osmotic pumps in rats. 60 male Sprague Dawley rats were randomly assigned into six groups, each consisting of 10 rats: non-diabetic rats, diabetic rats, diabetic rats intravitreally injected with DG (1000 nM concentration), diabetic rats intravitreally injected with sterile water as vehicle, diabetic rats treated systemically with DG (70 mg/mL to achieve 100 nM plasma DG concentration) via osmotic pumps, and diabetic rats treated systemically via osmotic pump with sterile water as control. Diabetes was induced for 15 weeks and at the end of the study all animals were examined and subsequently sacrificed and their retinas were examined for (i) in vivo permeability (IVP), (ii) RTD, and (iii) optical coherence tomography (OCT) for analyses of vascular leakage, AC and PL, and retinal thickness, respectively.
To determine the effect of improved cell-cell coupling on retinal vascular permeability under hyperglycemic stress, extravasation of FITC-dextran was assessed in the retinal capillaries following FITC-dextran tail vein injection performed shortly before animals were sacrificed.

[1] = system: Primary retinal endothelial cells from rats; assay: Transcriptomic effects in an in vitro diabetic retinopathy model; type: cell-based, rat; settings: HG medium
Procedure: The transcriptomic effects of danegaptide in an in vitro diabetic retinopathy model were investigated to 1) reveal transcriptomic changes in diabetic-like conditions with or without danegaptide and 2) associate functional effects previously observed to transcriptomic modifications and 3) identify pathways involved in danegaptide effects on relevant cells under diabetes-like conditions. Primary retinal endothelial cells from rats were plated for in vitro experiments under four experiments conditions, Normal Glucose medium (NG), High Glucose medium (HG), High Glucose medium+Danegaptide 100 nM (HG_DG100) and High Glucose medium+Danegaptide 1000 nM (HG_DG1000). The samples were assessed at four time points (4 hours after plating, 1 day after plating, 3 days after plating and 5 days after plating).

[2] = system: streptozotocin (STZ)-induced diabetic rats; assay: Follow-up study, 15 weeks of diabetes: AC and PL in retinal trypsin digests, intravitreal or osmotic pump delivery; type: in vivo, rat; settings: for number of PL / development of AC: diabetic rats, 15 weeks; for number of AC (FIG. 2) / number of PL (FIG. 2): diabetic rat retinas
Procedure: (§1) All animal studies were performed according to the ARVO Statement for the Use of Animals in Ophthalmic and Vision Research. In the pilot study to determine the optimal concentration of danegaptide, twelve Sprague-Dawley male rats, each weighing 200 g, were used. Nine of the twelve rats were injected intraperitoneally with streptozotocin (STZ) (55 mg/kg body weight) to induce diabetes for 6 weeks. The remaining 3 animals served as non-diabetic controls. After 6 weeks of diabetes, the animals were killed and retinas were isolated. In the follow-up study to determine the effect of 1000 nM danegaptide on the number of AC and PL, thirty-six Sprague-Dawley male rats, each weighing 200 g, were used. Thirty of the thirty-six rats were injected with STZ to induce diabetes for 15 weeks. The remaining six animals served as non-diabetic controls. After 15 weeks of diabetes, the animals were killed and retinas were isolated. The glucose concentration in blood and urine were checked after 2 or 3 days after STZ injection to confirm diabetes status in the animals. Blood glucose levels were measured in each animal 2-3 times weekly and at the time of death. The diabetic group represented rats with blood glucose levels of >350 mg/dL. The diabetic rats received NPH insulin injection as needed to maintain blood glucose levels.
The enucleated eyes were placed in 10% formalin for at least 24 hrs. The eyes were then cut in half with a razor blade, and the retinas were isolated and placed into 0.5M glycine for 24-48 hrs. RTD was performed as described in Kuwabara & Cogan (Studies of retinal vascular patterns. I. Normal architecture. Archives of ophthalmology 1960; 64:904-911). Each retina went through a series of washes with 3% trypsin, and the non-vascular mass of the retina was removed. The retinal capillary network was then isolated and mounted onto a silane-coated slide.
RTDs were stained with periodic acid-Schiff and hematoxylin as described in Bobbie et al. (Reduced connexin 43 expression and its effect on the development of vascular lesions in retinas of diabetic mice. Investigative ophthalmology & visual science 2010; 51:3758-3763). Ten representative fields were imaged using a digital camera attached to a microscope and the images were analyzed for AC and PL. Apoptotic pericytes were identified as PL based on prominent histological characteristics, including basement membrane protrusion as empty shell. Capillaries devoid of both pericytes and endothelial cells were considered as AC.
To determine the optimal concentration of danegaptide (DG), a Cx43 gap junction coupler, two concentrations (200 nM or 1000 nM) were tested via intravitreal injections in streptozotocin (STZ)-induced diabetic rats. Diabetes was induced via STZ for 6 weeks and at the end of the study, eyes were enucleated, and retinas subjected to retinal trypsin digestion (RTD) for isolation of capillary networks and stained with Hematoxylin and Periodic Acid Schiff's (PAS) reagent to analyze the number of acellular capillaries (AC) and pericyte loss (PL). Based on this pilot study, 1000 nM danegaptide was injected intravitreally in the follow-up study to determine the effect of improved cell coupling on retinal vascular cell death. Additionally, danegaptide was administered systemically using osmotic pumps. The number of rats used in this study was at least 6 per group. Overall, rats were divided into 6 groups: wild type (WT) control rats, STZ-induced diabetic rats, diabetic rats intravitreally injected with danegaptide, diabetic rats intravitreally injected with water, diabetic rats systemically delivered with danegaptide, and diabetic rats systemically delivered with water. Diabetes was induced via STZ for 15 weeks and at the end of the study, retinas were isolated and subjected to RTD for analyses of AC and PL. […]

[3] = system: streptozotocin (STZ)-induced diabetic rats; assay: Pilot study, 6 weeks of diabetes: AC and PL in retinal trypsin digests after intravitreal injection; type: in vivo, rat; settings: n=3
Procedure: as §1, with “After 15 weeks of diabetes, the animals were killed and retinas were isolated. The glucose concentration in blood and urine were checked after 2 or 3 days after STZ injection to confirm diabetes status in the animals.” left out, “The diabetic group represented rats with blood glucose levels of >350 mg/dL. The diabetic rats received NPH insulin injection as needed to maintain blood glucose levels.” left out
RTDs were stained with periodic acid-Schiff and hematoxylin as described in Bobbie et al. (Reduced connexin 43 expression and its effect on the development of vascular lesions in retinas of diabetic mice. Investigative ophthalmology & visual science 2010; 51:3758-3763). Ten representative fields were imaged using a digital camera attached to a microscope and the images were analyzed for AC and PL. […]

[4] = system: Rat retinal endothelial cells (RRECs); assay: Scrape load dye transfer (SLDT) assay of GJIC; type: cell-based; settings: HG (30 mM) medium, 100 nM, 3, 5 and 7 days
Procedure: (§2) Rat retinal endothelial cells (RRECs) were grown for 3, 5, and 7 days in normal (N; 5 mM) or HG (30 mM) medium; in parallel, cells grown in HG medium were exposed for 3, 5, and 7 days to 100 nM Danegaptide (DG), an AAP10 analogue, which stabilizes Cx43 mediated cell coupling. In addition, cells grown in N medium were treated with a Cx43 blocker (negative control) which inhibits GJ coupling, or a positive control AAP10, protecting GJIC. To determine GJIC, scrape load dye transfer (SLDT) assay was performed at the three time points. Similarly, cells were assessed for apoptosis and cell monolayer permeability by differential dye staining assay and in vitro permeability assay, respectively.

[5] = system: Rat retinal endothelial cells (RRECs); assay: Apoptosis by differential dye staining assay; type: cell-based; settings: HG (30 mM) medium, 100 nM, 3, 5 and 7 days
Procedure: as §2

[6] = system: Rat retinal endothelial cells (RRECs); assay: In vitro cell monolayer permeability assay; type: cell-based; settings: HG (30 mM) medium, 100 nM
Procedure: as §2

[7] = osmotic pumps (OP) vs water via OP
[8] = intravitreal (IV) injection vs IV injection of water

NCC(=O)N1C[C@H](NC(=O)c2ccccc2)C[C@H]1C(=O)O [danegaptide, (2S,4R)-1-(2-aminoacetyl)-4-benzoylamino-pyrrolidine-2-carboxylic acid]
vascular leakage (FIG. 3) (diabetic rats; IV injection vs IV injection of water): significantly reduced
difference in vascular leakage between intravitreal and systemic treatment (diabetic rats; diabetic rats): no significant difference
vascular leakage (diabetic rats; intravitreal DG 1000 nM, diabetic rats): 149±22 % of control
vascular leakage (FIG. 3) (diabetic rats; [7]): significantly reduced
vascular leakage (diabetic rats; systemic DG via osmotic pump (100 nM plasma target), diabetic rats): 143±14 % of control
Fscn3 expression (downregulated in HG versus NG) [1]: reverse by danegaptide
expression of genes differentially expressed in high glucose vs normal glucose ([1]; 100 or 1000 nM, 4 h and 1 d): reverses expression of some genes
Tpcn2 expression (downregulated in HG versus NG) ([1]; 4 h): reversed by danegaptide
Cacybp expression (downregulated in HG versus NG) ([1]; 1 d): reversed by danegaptide
expression of transcripts Dnm1I, Nucb2, Trmt10a (down-regulated under HG) ([1]; day 1): generally increased the expression
number of PL ([2]; intravitreal 1000 nM): 112±62 % of control
number of AC (FIG. 2) [2, 8]: significantly reduced
number of PL (FIG. 2) [2, 8]: significantly reduced
development of AC ([2]; intravitreal injections 1000 nM): 134±28 % of control
number of AC (FIG. 2) [2, 7]: significantly reduced
number of PL (FIG. 2) [2, 7]: significantly reduced
development of AC ([2]; systemic (osmotic pump)): 133±37 % of control
number of PL ([2]; systemic (osmotic pump)): 103±65 % of control
number of PL (pericyte loss) ([3]; intravitreal injection 1000 nM, vs untreated diabetic rat retinas): significantly reduced
number of AC (acellular capillaries) ([3]; intravitreal injection 200 or 1000 nM): decreased in the danegaptide treated groups but fell short of statistical significance
GJIC (SLDT assay) [4]: preserved GJIC
HG-induced apoptosis [5]: rescued cells from HG-induced apoptosis at all three time points
cell monolayer permeability [6]: significantly decreased by day 5
